Experimental data from PMC3109436 (Journal of medicinal chemistry, 2009).
Several values for one entry are separate records, joined by “and”; a condition that tells them apart may be missing. Identical values can stand only once. Entries after “also recorded” stand apart in the source; their conditions may differ. Like-named read-outs stand apart in the source and are kept apart here. Marks after values point to notes of the source that are not given here. Each block holds one molecule with its values, some of them ahead of it.

Legend:
human A3AR [1] = biological target: T1, human A3AR (Homo sapiens, UniProt P0DMS8); settings: at 10 μM, relative to 51 (= 100%); cited from earlier work
T1 sequence (P0DMS8 1-318): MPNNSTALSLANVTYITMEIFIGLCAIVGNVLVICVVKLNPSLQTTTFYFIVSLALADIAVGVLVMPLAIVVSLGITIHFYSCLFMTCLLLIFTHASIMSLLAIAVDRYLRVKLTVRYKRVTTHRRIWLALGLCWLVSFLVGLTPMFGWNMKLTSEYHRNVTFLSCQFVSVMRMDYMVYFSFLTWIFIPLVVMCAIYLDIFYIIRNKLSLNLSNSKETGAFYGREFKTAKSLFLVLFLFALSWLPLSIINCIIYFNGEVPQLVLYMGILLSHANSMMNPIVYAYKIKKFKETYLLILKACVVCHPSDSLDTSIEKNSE

[2] = biological target: T2, human A2A adenosine receptor (hA2AAR) (Homo sapiens, UniProt P29274); settings: cited from earlier work; for % inhibition of radioligand binding A2A: at 10 μM
A3AR = settings: at 10 μM, percentage of full effect induced by 10 μM 51; cited from earlier work
human A3AR [3] = biological target: T1, human A3AR; assay: Inhibition of forskolin-stimulated cAMP production; settings: for agonist character at hA3AR in the adenylate cyclase (cAMP) assay: relative to full agonist 51
rA3AR = biological target: T3, rA3AR (Rattus norvegicus, UniProt P28647); assay: Radioligand binding at rat A3AR
T3 sequence (P28647 1-320): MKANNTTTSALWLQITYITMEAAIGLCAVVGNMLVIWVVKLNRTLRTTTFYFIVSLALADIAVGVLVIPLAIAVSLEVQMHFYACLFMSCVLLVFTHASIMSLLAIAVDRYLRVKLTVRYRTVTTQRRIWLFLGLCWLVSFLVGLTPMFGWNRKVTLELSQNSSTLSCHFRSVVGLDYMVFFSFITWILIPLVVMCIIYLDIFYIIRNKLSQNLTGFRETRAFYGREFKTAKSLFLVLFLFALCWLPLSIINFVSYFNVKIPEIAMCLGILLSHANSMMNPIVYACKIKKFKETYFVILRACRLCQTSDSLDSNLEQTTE

[4] = biological target: T4, human A1 adenosine receptor (hA1AR) (Homo sapiens, UniProt P30542); assay: Radioligand binding at human A1AR, membranes of CHO cells
T4 sequence (P30542 1-326): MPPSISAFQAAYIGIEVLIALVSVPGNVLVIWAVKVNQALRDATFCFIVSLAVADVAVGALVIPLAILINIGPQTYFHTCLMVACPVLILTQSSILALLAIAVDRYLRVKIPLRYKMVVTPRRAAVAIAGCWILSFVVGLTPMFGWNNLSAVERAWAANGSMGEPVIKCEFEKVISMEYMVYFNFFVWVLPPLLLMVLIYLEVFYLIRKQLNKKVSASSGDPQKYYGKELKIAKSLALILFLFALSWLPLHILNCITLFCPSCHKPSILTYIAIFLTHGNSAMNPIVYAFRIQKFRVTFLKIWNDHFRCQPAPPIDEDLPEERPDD

[5] = biological target: T2, human A2A adenosine receptor (hA2AAR); assay: Radioligand binding at human A2AAR, membranes of HEK293 cells
[6] = biological target: T5, human A3 adenosine receptor (hA3AR) (Homo sapiens, UniProt P0DMS8); assay: Radioligand binding at human A3AR, membranes of CHO cells
T5 sequence (P0DMS8 1-318): T1 sequence (P0DMS8 1-318)

T2 sequence (P29274 whole entry): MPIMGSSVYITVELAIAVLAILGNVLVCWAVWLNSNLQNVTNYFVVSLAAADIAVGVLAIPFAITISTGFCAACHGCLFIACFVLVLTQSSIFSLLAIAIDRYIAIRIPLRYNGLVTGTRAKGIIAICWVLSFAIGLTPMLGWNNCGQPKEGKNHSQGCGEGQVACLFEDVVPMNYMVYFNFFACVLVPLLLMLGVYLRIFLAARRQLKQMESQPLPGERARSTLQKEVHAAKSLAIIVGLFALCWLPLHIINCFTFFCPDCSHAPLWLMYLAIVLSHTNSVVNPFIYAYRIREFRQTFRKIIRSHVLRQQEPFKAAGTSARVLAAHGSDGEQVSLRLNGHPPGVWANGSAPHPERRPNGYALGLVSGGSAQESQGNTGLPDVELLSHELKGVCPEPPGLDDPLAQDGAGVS

Compound: CNC(=O)[C@@]12C[C@@H]1[C@@H](n1cnc3c(NCc4cccc(I)c4)nc(Cl)nc31)[C@H](O)[C@@H]2O [Compound 1b, reference compound]
% efficacy, A3 (inhibition of forskolin-stimulated cAMP production) (human A3AR [1]): 100 ^c % | Ki ([2]; read-out: affinity (Ki) A2A, HEK293 cells expressing hA2AAR): 784 ± 97 nM

Compound: O[C@@H]1[C@H](O)[C@@H]2C[C@@H]2[C@H]1n1cnc2c(NCc3cccc(Cl)c3)nc(Cl)nc21 [Compound 2a]
% efficacy, A3 (stimulation of [35S]GTPγS binding) (A3AR): 2.9 ± 3.7 ^f %

Compound: CNC(=O)[C@@]12C[C@@H]1[C@@H](n1cnc3c(NCc4cccc(Cl)c4)nc(C#CCCCC(=O)O)nc31)[C@H](O)[C@@H]2O [Compound 6]
% inhibition of radioligand binding A2A [2]: (43%)

Compound: CNC(=O)[C@]12C[C@@H]1[C@@H](n1cnc3c(NCc4cccc(Cl)c4)nc(C#CCCCC(=O)OC)nc31)[C@H](O)[C@@H]2O [Compound 9]
% inhibition of radioligand binding A2A [2]: (49%)

Compound: CNC(=O)[C@]12C[C@@H]1[C@@H](n1cnc3c(NCc4cccc(Cl)c4)nc(C#CCCCC(=O)NCCN)nc31)[C@H](O)[C@@H]2O [Compound 12]
% inhibition of radioligand binding A2A [2]: (81%)

Compound: CCN1C(=CC=CC=CC2=[N+](CCCCCC(=O)NCCNC(=O)CCC#Cc3nc(NCc4cccc(Cl)c4)c4ncn(C5C(O)C(O)C6(C(=O)NC)CC56)c4n3)c3ccc(S(=O)(=O)O)cc3C2(C)C)C(C)(C)c2cc(S(=O)(=O)[O-])ccc21 (stereo not drawn) [Compound 18, (1′S,2′R,3′S,4′S,5′S)-4′-[6-(3-Chlorobenzylamino)-2-(N-cyaiune(β-aminoethylaminocarbonyl)-1-butynyl)-9-yl]-2′,3′-dihydroxybicyclo[3.1.0]hexane-1′-carboxylic Acid N-Methylamide]
agonist character at hA3AR in the adenylate cyclase (cAMP) assay (human A3AR [3]): full agonist | Ki (rA3AR): 9.62 nM and 9.6 nM | inhibition at 10 µM ([4]; read-out: % inhibition of radioligand binding A1): 36% | Ki [5]: 4730 ± 1020 nM

Compound: O[C@@H]1[C@H](O)[C@@H]2C[C@@H]2[C@H]1n1cnc2c(NCc3cccc(Cl)c3)ncnc21 [Compound 22]
agonist character at hA3AR in the adenylate cyclase (cAMP) assay (human A3AR [3]): partial

Compound: O[C@@H]1[C@H](O)[C@@H]2C[C@@H]2[C@H]1n1cnc2c(NCc3cccc(I)c3)ncnc21 [Compound 23, (1′R,2′R,3′S,4′ S,5′ S)-4′-[6-(3-Iodobenzylamino)purine]-2′,3′-dihydroxybicyclo[3.1.0]hexane]
agonist character at hA3AR in the adenylate cyclase (cAMP) assay (human A3AR [3]): nearly full agonism | Ki [5]: 2330 ± 680 nM | Ki [6]: 11 ± 2.2 nM

Compound: O[C@@H]1[C@H](O)[C@@H]2C[C@@H]2[C@H]1n1cnc2c(NC3CCCC3)nc(Cl)nc21 [Compound 25]
agonist character at hA3AR in the adenylate cyclase (cAMP) assay (human A3AR [3]): nearly full agonism; also recorded: full agonist | fold reduction of affinity at A1AR on loss of the 5′-N-methyluronamide group ([4]; 25 versus 4): 6 fold | fold reduction of affinity at A3AR on loss of the 5′-N-methyluronamide group ([6]; 25 versus 4): 32 fold

Further lines, with some results ahead:

agonist character at hA3AR in the adenylate cyclase (cAMP) assay (human A3AR [3]): partial agonists
Compound: O[C@@H]1[C@H](O)[C@@H]2C[C@@H]2[C@H]1n1cnc2c(NCc3cccc(Br)c3)nc(Cl)nc21 [Compound 2b, (1R,2R,3S,4R,5S)-4-(6-(3-bromobenzylamino)-2-chloro-9H-purin-9-yl)bicyclo-[3.1.0]hexane-2,3-diol, reference compound]

agonist character at hA3AR in the adenylate cyclase (cAMP) assay (human A3AR [3]): partial agonists
Compound: O[C@@H]1[C@H](O)[C@@H]2C[C@@H]2[C@H]1n1cnc2c(NCc3cccc(I)c3)nc(Cl)nc21 [Compound 2c, reference compound]
% efficacy, A3 (stimulation of [35S]GTPγS binding) (A3AR): 1.0 ± 3.2%

EC50 (human A3AR [3]): 2.5 ± 0.42 nM
Compound: CNC(=O)[C@]12C[C@@H]1[C@@H](n1cnc3c(NCc4cccc(Cl)c4)nc(C#CCCC(=O)NCCNC(=O)CCCC[C@H]4SC[C@H]5NC(=O)N[C@H]54)nc31)[C@H](O)[C@@H]2O [Compound 17a, (1′S,2′R,3′S,4′S,5′S)-4′-[6-(3-Chiorobenzylamino)-2-(N-biotinyl(β-aminoethylaminocarbonyl)-1-butynyl)-9-yl]-2′, 3′-dihydroxybicyclo[3.1.0]hexane-1′-carboxylic Acid N-Methylamide]
